Source: the NIST ThermoML archive (doi:10.1021/je900888e)

Test: mn = molality of the nth substance listed, in mol/kg
Settings: 101 kPa, Liquid; for speed of sound: Pulse-echo method

CCCC[P+](CCCC)(CCCC)CCCC.[Br-] [tetrabutylphosphonium bromide] + CCO
Settings | mass density, 288.15 K [kg/m3] | mass density, 293.15 K [kg/m3] | mass density, 298.15 K [kg/m3] | mass density, 303.15 K [kg/m3] | mass density, 308.15 K [kg/m3] | mass density, 313.15 K [kg/m3] | mass density, 323.15 K [kg/m3] | speed of sound, 298.15 K [m/s]
m1 = 0.01059 | 794.469 | 790.202 | 785.915 | 781.605 | 777.266 | 772.883 | 763.983 | 1143.4
m1 = 0.01529 | 794.835 | 790.569 | 786.285 | 781.975 | 777.642 | 773.262 | 764.367 | –
m1 = 0.02012 | 795.211 | 790.945 | 786.664 | 782.36 | 778.029 | 773.654 | 764.765 | 1144.2
m1 = 0.02498 | 795.579 | 791.314 | 787.039 | 782.735 | 778.405 | 774.033 | 765.15 | –
m1 = 0.03006 | 795.97 | 791.71 | 787.435 | 783.133 | 778.811 | 774.44 | 765.563 | 1144.9
m1 = 0.03503 | 796.342 | 792.084 | 787.812 | 783.514 | 779.185 | 774.821 | 765.954 | –
m1 = 0.04151 | 796.84 | 792.586 | 788.317 | 784.017 | 779.692 | 775.339 | 766.473 | –
m1 = 0.04161 | – | – | – | – | – | – | – | 1145.8
m1 = 0.05762 | 798.064 | 793.819 | 789.557 | 785.266 | 780.958 | 776.605 | 767.762 | 1147
m1 = 0.0739 | 799.301 | 795.066 | 790.805 | 786.532 | 782.224 | 777.879 | 769.054 | 1148.3
m1 = 0.09578 | 800.947 | 796.718 | 792.466 | 788.201 | 783.906 | 779.575 | 770.773 | 1150
m1 = 0.1153 | 802.415 | 798.195 | 793.96 | 789.696 | 785.405 | 781.083 | 772.302 | 1151.6
m1 = 0.1491 | 805.003 | 800.793 | 796.569 | 792.326 | 788.054 | 783.746 | 775 | 1154
m1 = 0.1902 | 808.127 | 803.94 | 799.735 | 795.51 | 791.254 | 786.963 | 778.257 | 1157.1
m1 = 0.2304 | 811.194 | 807.016 | 802.825 | 798.61 | 794.369 | 790.1 | 781.434 | 1160.1
m1 = 0.2693 | 814.212 | 810.05 | 805.871 | 801.675 | 797.452 | 793.195 | 784.564 | 1163.2
m1 = 0.3148 | 817.67 | 813.522 | 809.364 | 805.185 | 800.979 | 796.743 | 788.154 | 1166.6
m1 = 0.3532 | 820.707 | 816.572 | 812.423 | 808.255 | 804.069 | 799.851 | 791.3 | 1169.7
